Measurements published in patent US11730819B2, “Peptide derivatives having novel linkage structures” (priority 2016, dated 2023).
Several values for one entry are separate records, joined by “and”; a condition that tells them apart may be missing. Equal entries are not always repeated. Where two headings read alike, the source gives them in different places.

Tests used:
MT1-MMP hemopexin domain = biological target: T1, MT1-MMP hemopexin domain (Homo sapiens, UniProt P50281); assay: Fluorescence polarisation competition binding assay
T1 construct: residues Cys319-Gly511 from the human gene; His6 (N); made in house; host or cells: HEK293 cells (transient, pEXPR-IBA42 vector)
From the text: The MT1-MMP hemopexin-like repeats (also known as the MT1-MMP hemopexin domain), residues Cys319-Gly511 from the human gene, were transiently expressed in HEK293 cells as secreted N-terminally His6-tagged soluble protein, using the pEXPR-IBA42 (IBA) expression vector. Following expression, the protein was purified by Nickel-NTA affinity chromatography followed by gel filtration, and purity was checked by SDS-PAGE. Batch to batch variability was also monitored by fluorescence thermal shift experiments in the presence/absence of a hemopexin domain binding bicycle.
(§1) Binding affinity was measured using competition assays using Fluorescence Polarisation (anisotropy).
Fluoresceination may be performed on the N-terminal amino group of the peptide, which is separated from the bicycle core sequence by a sarcosine spacer (usually Sar5). This can be done during Fmoc solid phase synthesis or post-synthetically (after cyclisation with TBMB and purification) if the N-terminal amino group is unique to the peptide. Fluoresceination can also be performed on the C-terminus, usually on a Lysine introduced as the first C-terminal residue, which is then separated from the bicycle core sequence by a sarcosine spacer (usually Sar6). Thus, N-terminal tracers can have a molecular format described as Fluo-Gly-Sar5-A(BicycleCoreSequence), and (BicycleCoreSequence)-A-Sar6-K(Fluo) for a C-terminally fluoresceinated construct. Fluorescent tracers used in the Examples are A-(17-69)-A-Sar6-K(Fluo), A-(17-69-07)-A-Sar6-K(Fluo), and A-(17-69-12)-A-Sar6-K(Fluo).
(§2) Here, a pre-formed complex of PEX with the fluorescent PEX-binding tracer is titrated with free, non-fluoresceinated bicyclic peptide. Since all 17-69-based peptides are expected to bind at the same site, the titrant will displace the fluorescent tracer from PEX. Dissociation of the complex can be measured quantitatively, and the Kd of the competitor (titrant) to the target protein determined. The advantage of the competition method is that the affinities of non-fluoresceinated bicyclic peptides can be determined accurately and rapidly.
(§3) Subsequently, the non-fluorescent competitor bicyclic peptide (usually just the bicycle core sequence) is titrated, such that it displaces the fluorescent tracer from the target protein. The displacement of the tracer is measured and associated with a drop in fluorescence polarisation. The drop in fluorescence polarisation is proportional to the fraction of target protein bound with the non-fluorescent titrant, and thus is a measure of the affinity of titrant to target protein.
(§4) The raw data is fit to the analytical solution of the cubic equation that describes the equilibria between fluorescent tracer, titrant, and binding protein. The fit requires the value of the affinity of fluorescent tracer to the target protein, which can be determined separately by direct binding FP experiments (see previous section).

rat/mouse MT1-MMP = rat/mouse MT1-MMP (Mus musculus, UniProt P53690); assay: Binding affinity to rat/mouse MT1-MMP, measured as previously described; conditions: Binding Affinity (Ki in nM) rat/mouse ki, bicycle peptide-drug conjugates, two values given
Experimental: as §1, §2, §3
as §4, with “section). The curve fitting was performed using Sigmaplot 12.0 and used an adapted version of the equation described by Zhi-Xin Wang (FEBS Letters 360 (1995) 111-114).” for “section).”
The in vitro binding affinities of the bicycle peptide-drug conjugates prepared above were measured for MT1-MMP as previously described herein.

[1] = human MT1-MMP, bicycle peptides, read-out: Binding Affinity Ki (h)
[2] = Binding Affinity (Ki in nM) Human ki, bicycle peptide-drug conjugates, human MT1-MMP, two values given

Structure (SMILES)	Ki (MT1-MMP hemopexin domain; [1])	Ki (MT1-MMP hemopexin domain)	other results
CC(=O)NCCC(=O)N(C)CC(=O)N(C)CC(=O)N(C)CC(=O)N(C)CC(=O)N(C)CC(=O)N(C)CC(=O)N(C)CC(=O)N(C)CC(=O)N(C)CC(=O)N(C)CC(=O)N[C@@H](C)C(=O)N[C@H]1CNCc2cc3cc(c2)CSC[C@H](NC(=O)[C@@H](C)NC(=O)[C@H](Cc2cccc4ccccc24)NC(=O)[C@H](CCC(=O)O)NC(=O)[C@H](CC(N)=O)NC(=O)[C@@H](C)NC1=O)C(=O)N[C@@H](CCC(=O)O)C(=O)N[C@@H](CC(=O)O)C(=O)N[C@@H](Cc1ccccc1)C(=O)N[C@@H](Cc1ccc(O)cc1)C(=O)N[C@@H](CC(=O)O)C(=O)N[C@@H](C(C)(C)C)C(=O)N[C@H](C(N)=O)CNC3 [17-69-07-N455, Ac-(B-Ala)-Sar10-A(Dap)(D-Ala)NE(1Nal)(D-Ala)CEDFYD(tBuGly)(Dap)]			Ki (MT1-MMP hemopexin domain; Binding Affinity Ki (h), human MT1-MMP, bicycle peptides): 4 nM
CC(=O)N[C@H]1CN(C)Cc2cc3cc(c2)CN(C)C[C@@H](C(N)=O)NC(=O)[C@H](C(C)(C)C)NC(=O)[C@H](CC(=O)O)NC(=O)[C@H](Cc2ccc(O)cc2)NC(=O)[C@H](Cc2ccccc2)NC(=O)[C@H](CC(=O)O)NC(=O)[C@H](CCC(=O)O)NC(=O)[C@H](CSC3)NC(=O)[C@@H](C)NC(=O)[C@H](Cc2cccc3ccccc23)NC(=O)[C@H](CCC(=O)O)NC(=O)[C@H](CC(N)=O)NC(=O)[C@@H](C)NC1=O [17-69-07-N461, Ac(Dap(Me))(D-Ala)NE(1Nal)(D-Ala)CEDFYD(tBuGly)(Dap(Me))]	6 nM		
CC(=O)N[C@@H](C)C(=O)N[C@H]1CN(C)Cc2cc3cc(c2)CN(C)C[C@H](NC(=O)[C@@H](C)NC(=O)[C@H](Cc2cccc4ccccc24)NC(=O)[C@H](CCC(=O)O)NC(=O)[C@H](CC(N)=O)NC(=O)[C@@H](C)NC1=O)C(=O)N[C@@H](CCC(=O)O)C(=O)N[C@@H](CC(=O)O)C(=O)N[C@@H](Cc1ccccc1)C(=O)N[C@@H](Cc1ccc(O)cc1)C(=O)N[C@@H](CC(=O)O)C(=O)N[C@@H](C(C)(C)C)C(=O)N[C@H](C(N)=O)CSC3 [17-69-07-N470, Ac-A(Dap(Me))(D-Ala)NE(1Nal)(D-Ala)(Dap(Me))EDFYD(tBuGly)C]		8.3 nM	
C#CCCC(=O)N[C@H](CC(=O)O)C(=O)N[C@H](CC(=O)O)C(=O)N[C@H](CC(=O)O)C(=O)N(C)CC(=O)N(C)CC(=O)N[C@@H](C)C(=O)N[C@H]1CN(C)Cc2cc3cc(c2)CN(C)C[C@@H](C(N)=O)NC(=O)[C@H](C(C)(C)C)NC(=O)[C@H](CC(=O)O)NC(=O)[C@H](Cc2ccc(O)cc2)NC(=O)[C@H](Cc2ccccc2)NC(=O)[C@H](CC(=O)O)NC(=O)[C@H](CCC(=O)O)NC(=O)[C@H](CSC3)NC(=O)[C@@H](C)NC(=O)[C@H](Cc2cccc3ccccc23)NC(=O)[C@H](CCC(=O)O)NC(=O)[C@H](CC(N)=O)NC(=O)[C@@H](C)NC1=O [17-69-07-N471, (PYA)-(D-Asp)3-Sar2-A(Dap(Me))(D-Ala)NE(1Nal)(D-Ala)CEDFYD(tBuGly)(Dap(Me))]	4.6 nM		
C#CCCC(=O)NCCC(=O)N(C)CC(=O)N(C)CC(=O)N(C)CC(=O)N(C)CC(=O)N(C)CC(=O)N[C@@H](C)C(=O)N[C@H]1CN(C)Cc2cc3cc(c2)CN(C)C[C@@H](C(N)=O)NC(=O)[C@H](C(C)(C)C)NC(=O)[C@H](CC(=O)O)NC(=O)[C@H](Cc2ccc(O)cc2)NC(=O)[C@H](Cc2ccccc2)NC(=O)[C@H](CC(=O)O)NC(=O)[C@H](CCC(=O)O)NC(=O)[C@H](CSC3)NC(=O)[C@@H](C)NC(=O)[C@H](Cc2cccc3ccccc23)NC(=O)[C@H](CCC(=O)O)NC(=O)[C@H](CC(N)=O)NC(=O)[C@@H](C)NC1=O [17-69-07-N472, (PYA)-(B-Ala)-Sar5-A(Dap(Me))(D-Ala)NE(1Nal)(D-Ala)CEDFYD(tBuGly)(Dap(Me))]	3.4 nM		
C#CCCC(=O)N[C@H](CC(=O)O)C(=O)N[C@H](CC(=O)O)C(=O)N[C@H](CC(=O)O)C(=O)N(C)CC(=O)N(C)CC(=O)N[C@@H](C)C(=O)N[C@H]1CN(C)Cc2cc3cc(c2)CN(C)C[C@H](NC(=O)[C@@H](C)NC(=O)[C@H](Cc2cccc4ccccc24)NC(=O)[C@H](CCC(=O)O)NC(=O)[C@H](CC(N)=O)NC(=O)[C@@H](C)NC1=O)C(=O)N[C@@H](CCC(=O)O)C(=O)N[C@@H](CC(=O)O)C(=O)N[C@@H](Cc1ccccc1)C(=O)N[C@@H](Cc1ccc(O)cc1)C(=O)N[C@@H](CC(=O)O)C(=O)N[C@@H](C(C)(C)C)C(=O)N[C@H](C(N)=O)CSC3 [17-69-07-N473, (PYA)-(D-Asp)3-Sar2-A(Dap(Me))(D-Ala)NE(1Nal)(D-Ala)(Dap(Me))EDFYD(tBuGly)C]		7.3 nM	
CC(=O)N[C@@H](C)C(=O)N[C@H]1CN(C)Cc2cc3cc(c2)CN(C)C[C@H](NC(=O)[C@@H](C)NC(=O)[C@H](Cc2cccc4ccccc24)NC(=O)[C@H](CCC(=O)O)NC(=O)[C@H](CC(N)=O)NC(=O)[C@@H](C)NC1=O)C(=O)N[C@@H](CCC(=O)O)C(=O)N[C@@H](CC(=O)O)C(=O)N[C@@H](Cc1ccccc1)C(=O)N[C@@H](Cc1ccc(O)cc1)C(=O)N[C@@H](CC(=O)O)C(=O)N[C@@H](C(C)(C)C)C(=O)N[C@H](C(N)=O)CN(C)C3 [17-69-07-N474, Ac-A(Dap(Me))(D-Ala)NE(1NaI)(D-Ala)(Dap(Me))EDFYD(tBuGly)(Dap(Me))]		7.5 nM	Kd (MT1-MMP hemopexin domain): 8 nM
CC[C@H](C)[C@@H]([C@@H](CC(=O)N1CCC[C@H]1[C@H](OC)[C@@H](C)C(=O)N[C@H](C)[C@@H](O)c1ccccc1)OC)N(C)C(=O)[C@@H](NC(=O)[C@H](C(C)C)N(C)C(=O)OCc1ccc(NC(=O)[C@H](CCCNC(N)=O)NC(=O)[C@@H](NC(=O)Cn2cc(CCC(=O)N[C@@H](C)C(=O)N[C@H]3CN(C)Cc4cc5cc(c4)CN(C)C[C@@H](C(N)=O)NC(=O)[C@H](C(C)(C)C)NC(=O)[C@H](CC(=O)O)NC(=O)[C@H](Cc4ccc(O)cc4)NC(=O)[C@H](Cc4ccccc4)NC(=O)[C@H](CC(=O)O)NC(=O)[C@H](CCC(=O)O)NC(=O)[C@H](CSC5)NC(=O)[C@@H](C)NC(=O)[C@H](Cc4cccc5ccccc45)NC(=O)[C@H](CCC(=O)O)NC(=O)[C@H](CC(N)=O)NC(=O)[C@@H](C)NC3=O)nn2)C(C)C)cc1)C(C)C [BT17BDC-62]			Ki (MT1-MMP hemopexin domain; [2]): 3.9 nM and 3.3 nM; Ki (rat/mouse MT1-MMP): 2.1 nM and 1.9 nM
CC[C@H](C)[C@@H]([C@@H](CC(=O)N1CCC[C@H]1[C@H](OC)[C@@H](C)C(=O)N[C@H](C)[C@@H](O)c1ccccc1)OC)N(C)C(=O)[C@@H](NC(=O)[C@H](C(C)C)N(C)C(=O)OCc1ccc(NC(=O)[C@H](CCCNC(N)=O)NC(=O)[C@@H](NC(=O)CCCC(=O)NCCC(=O)N(C)CC(=O)N(C)CC(=O)N(C)CC(=O)N(C)CC(=O)N(C)CC(=O)N(C)CC(=O)N(C)CC(=O)N(C)CC(=O)N(C)CC(=O)N(C)CC(=O)N[C@@H](C)C(=O)N[C@H]2CN(C)Cc3cc4cc(c3)CN(C)C[C@@H](C(N)=O)NC(=O)[C@H](C(C)(C)C)NC(=O)[C@H](CC(=O)O)NC(=O)[C@H](Cc3ccc(O)cc3)NC(=O)[C@H](Cc3ccccc3)NC(=O)[C@H](CC(=O)O)NC(=O)[C@H](CCC(=O)O)NC(=O)[C@H](CSC4)NC(=O)[C@@H](C)NC(=O)[C@H](Cc3cccc4ccccc34)NC(=O)[C@H](CCC(=O)O)NC(=O)[C@H](CC(N)=O)NC(=O)[C@@H](C)NC2=O)C(C)C)cc1)C(C)C [BT17BDC-68]			Ki (MT1-MMP hemopexin domain; [2]): 2.9 nM and 3.3 nM; Ki (rat/mouse MT1-MMP): 1.8 nM and 1.6 nM
